We go through 22 compounds from patent US20120309796A1, “BENZOCYCLOHEPTENE ACETIC ACIDS” (priority 2011, published 2012).

As usually defined, the IC50 is the concentration at which inhibition is half-maximal. Low readings indicate inhibition by little substance, high ones a need for much substance.

The test concerns the target T1, human CRTH2 (Homo sapiens, UniProt Q9Y5Y4).
T1 sequence (Q9Y5Y4 1-395): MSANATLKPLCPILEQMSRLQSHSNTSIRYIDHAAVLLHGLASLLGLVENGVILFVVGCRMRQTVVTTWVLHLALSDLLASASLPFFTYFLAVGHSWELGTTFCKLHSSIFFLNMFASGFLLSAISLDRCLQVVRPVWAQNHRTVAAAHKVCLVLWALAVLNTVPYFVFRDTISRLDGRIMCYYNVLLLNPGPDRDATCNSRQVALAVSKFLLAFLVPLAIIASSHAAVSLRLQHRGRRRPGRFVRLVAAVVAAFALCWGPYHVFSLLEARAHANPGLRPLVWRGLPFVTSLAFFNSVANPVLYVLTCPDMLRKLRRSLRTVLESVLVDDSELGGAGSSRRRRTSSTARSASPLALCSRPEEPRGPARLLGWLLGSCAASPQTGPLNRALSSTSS
The test is described as follows: Human CRTH2 Receptor Binding Assay (whole cell, [3H]ramatroban competition). More on the design: two mammalian expression vectors that harbored human CRTH2 and G-alpha16 cDNAs; expressed in transfected cells. Particulars: CHO-K1 cells expressing human CRTH2 and G-alpha16; 20 nM [3H]ramatroban; 1 hour, room temperature. The text has this:
A whole cell receptor binding assay using [^3H]ramatroban as the competing radioactive ligand was employed to evaluate the compound binding activity to human CRTH2. The radioactive ligand [^3H]ramatroban was synthesized according to Sugimoto et. al. (Eur. J. Pharmacol. 2005, 524, 30-37) to a specific activity of 42 Ci/mmol
A cell line stably expressing human CRTH2 was established by transfecting CHO-K1 cells with two mammalian expression vectors that harbored human CRTH2 and G-alpha16 cDNAs, respectively, using FuGene® 6 transfection reagent (from Roche). Stable clones expressing CRTH2 were selected by staining each clone with BM16 (BD Pharmingen™ from BD Biosciences, a division of Becton, Dickinson and Company), which is a rat monoclonal antibody to human CRTH2. The cells were maintained as monolayer cultures in Ham's F-12 medium containing 10% fetal bovine serum, 100 units/mL penicillin, 100 μg/mL streptomycin, 2 mM glutamine, 0.5 mg/mL G418 (geneticin) for CRTH2, and 0.2 mg/mL hygromycin-B (for G-alpha 16). For whole cell receptor binding assay, the monolayer cells were rinsed once with PBS (phosphate buffered saline), dissociated using ethylenediaminetetraacetate (Versene™ EDTA from Lonza Inc.), and suspended in PBS containing 10 mM MgCl2 and 0.06% BSA (bovine serum albumin) at 1.5×10^6 cells/mL.
The binding reactions (0.2 mL) were performed in 96-well plates at room temperature in PBS containing 1.5×10^5 cells, 10 mM MgCl2, 0.06% BSA, 20 nM [^3H]ramatroban, and test compound at various concentrations. After 1 hour of binding reactions, the cells were harvested on GF™/B filter microplates (microtiter plates with embedded glass fiber from PerkinElmer, Inc.) and washed 5 times with PBS using a Filtermate™ Harvester (a cell harvester that harvests and washes cells from microplates from PerkinElmer, Inc.). The radioactivities bound to the cells were determined using a microplate scintillation counter (TopCount® NXT, from PerkinElmer, Inc.) after adding 50 μL of Microscint™ 20 scintillation fluid (from PerkinElmer, Inc.) to each well of the filter plates. The radioactivity from non-specific binding was determined by replacing compound with 10 μM of 15(R)-15-methyl PGD2 (from Cayman Chemical Company) in the reaction mixtures. The radioactivity bound to the cells in the absence of compound (total binding) was determined by replacing compound with 0.25% of DMSO (dimethyl sulfoxide) in the reaction mixture. Specific binding data were obtained by subtracting the radioactivity of non-specific binding from each binding data.
The IC50 value is defined as the concentration of the tested compound that is required for 50% inhibition of total specific binding. In order to calculate the IC50 value, the percent inhibition data were determined for 7 concentrations for each compound. The percent inhibition for a compound at each concentration was calculated according to the following formula, [1-(specific binding in the presence of compound)/(total specific binding)]×100. The IC50 value was then obtained by fitting the percent inhibition data to a sigmoidal dose-response (4 parameter logistic) model in the XLfit® software Excel add-in program [from ID Business Solutions Ltd., model 205, where F(x)=(A+(B−A)/(1+((C/x)̂D)))].
Compound `CC(=O)c1cc(C(F)(F)F)cc(S(=O)(=O)N(C)C2CCCCc3c(OCC(=O)O)cccc32)c1` (stereo not shown) [Example 16, {5-[(3-Acetyl-5-trifluoromethyl-benzenesulfonyl)-methyl-amino]-6,7,8,9-tetrahydro-5H-benzocyclohepten-1-yloxy}-acetic acid] had an IC50 of 5.9 nM.
The figure for `COc1cc(C(F)(F)F)cc(S(=O)(=O)NC2CCCCc3c(OCC(=O)O)cccc32)c1` (stereo not shown) [Example 13, [5-(3-Methoxy-5-trifluoromethyl-benzenesulfonylamino)-6,7,8,9-tetrahydro-5H-benzocyclohepten-1-yloxy]-acetic acid] is 158 nM.
For `CN(C1CCCCc2c(OCC(=O)O)cccc21)S(=O)(=O)c1ccc(-c2ccc(O)cc2)cc1` (stereo not shown) [Example 24, {5-[(4′-Hydroxy-biphenyl-4-sulfonyl)-methyl-amino]-6,7,8,9-tetrahydro-5H-benzocyclohepten-1-yloxy}-acetic acid], the IC50 turned out to be 987 nM.
With `CC(C)c1cccc(-c2ccc(S(=O)(=O)NC3CCCCc4c(OCC(=O)O)cccc43)cc2)c1` (stereo not shown) [Example 19, [5-(3′-Isopropyl-biphenyl-4-sulfonylamino)-6,7,8,9-tetrahydro-5H-benzocyclohepten-1-yloxy]-acetic acid] the figure was 13 nM.
The figure for `CC(C)c1cc(C(F)(F)F)cc(S(=O)(=O)NC2CCCCc3c(OCC(=O)O)cccc32)c1` (stereo not shown) [Example 43, [5-(3-Isopropyl-5-trifluoromethyl-benzenesulfonylamino)-6,7,8,9-tetrahydro-5H-benzocyclohepten-1-yloxy]-acetic acid] is 298 nM; for `CC(=O)c1cc(C(F)(F)F)cc(S(=O)(=O)NC2CCCCc3c(OCC(=O)O)cccc32)c1` (stereo not shown) [Example 15, [5-(3-Acetyl-5-trifluoromethyl-benzenesulfonylamino)-6,7,8,9-tetrahydro-5H-benzocyclohepten-1-yloxy]-acetic acid] it is 3.3 nM.
`CS(=O)(=O)c1cc(C(F)(F)F)cc(S(=O)(=O)NC2CCCCc3c(OCC(=O)O)cccc32)c1` (stereo not shown) [Example 17, [5-(3-Methanesulfonyl-5-trifluoromethyl-benzenesulfonylamino)-6,7,8,9-tetrahydro-5H-benzocyclohepten-1-yloxy]-acetic acid] showed an IC50 of 11.4 nM.
The figure for `CN(C1CCCCc2c(OCC(=O)O)cccc21)S(=O)(=O)c1ccc(-c2cccc(S(C)(=O)=O)c2)cc1` (stereo not shown) [Example 30, {5-[(3′-Methanesulfonyl-biphenyl-4-sulfonyl)-methyl-amino]-6,7,8,9-tetrahydro-5H-benzocyclohepten-1-yloxy}-acetic acid] is 189 nM.
With `CN(C1CCCCc2c(OCC(=O)O)cccc21)S(=O)(=O)c1ccc(-c2ccccc2)cc1` (stereo not shown) [Example 12, {5-[(Biphenyl-4-sulfonyl)-methyl-amino]-6,7,8,9-tetrahydro-5H-benzocyclohepten-1-yloxy}-acetic acid] the figure was 750 nM.
With `CN(C1CCCCc2c(OCC(=O)O)cccc21)S(=O)(=O)c1ccc(-c2cccc(CCO)c2)cn1` (stereo not shown) [Example 38, [5-({5-[3-(2-Hydroxy-ethyl)-phenyl]-pyridine-2-sulfonyl}-methyl-amino)-6,7,8,9-tetrahydro-5H-benzocyclohepten-1-yloxy]-acetic acid] the figure was 2120 nM; with `CS(=O)(=O)c1cc(S(C)(=O)=O)cc(S(=O)(=O)NC2CCCCc3c(OCC(=O)O)cccc32)c1` (stereo not shown) [Example 10, [5-(3,5-Bis-methanesulfonyl-benzenesulfonylamino)-6,7,8,9-tetrahydro-5H-benzocyclohepten-1-yloxy]-acetic acid], 50.3 nM.
Consider `CC(C)c1cc(C(F)(F)F)cc(S(=O)(=O)N(C)C2CCCCc3c(OCC(=O)O)cccc32)c1` (stereo not shown) [Example 44, {5-[(3-Isopropyl-5-trifluoromethyl-benzenesulfonyl)-methyl-amino]-6,7,8,9-tetrahydro-5H-benzocyclohepten-1-yloxy}-acetic acid], for which the half-maximal inhibitory concentration (IC50) was determined as 199 nM.
The figure for `CC(C)c1cccc(-c2ccc(S(=O)(=O)N(C)C3CCCCc4c(OCC(=O)O)cccc43)nc2)c1` (stereo not shown) [Example 32, (5-{[5-(3-Isopropyl-phenyl)-pyridine-2-sulfonyl]-methyl-amino}-6,7,8,9-tetrahydro-5H-benzocyclohepten-1-yloxy)-acetic acid] is 123 nM; for `CN(C1CCCCc2c(OCC(=O)O)cccc21)S(=O)(=O)c1cc(F)cc(C(F)(F)F)c1` (stereo not shown) [Example 7, {5-[(3-Fluoro-5-trifluoromethyl-benzenesulfonyl)-methyl-amino]-6,7,8,9-tetrahydro-5H-benzocyclohepten-1-yloxy}-acetic acid] it is 64.6 nM.
Take `CN(C1CCCCc2c(OCC(=O)O)cccc21)S(=O)(=O)c1cc(C(F)(F)F)cc(S(C)(=O)=O)c1` (stereo not shown) [Example 18, {5-[(3-Methanesulfonyl-5-trifluoromethyl-benzenesulfonyl)-methyl-amino]-6,7,8,9-tetrahydro-5H-benzocyclohepten-1-yloxy}-acetic acid]: the half-maximal inhibitory concentration (IC50) was found to be 11.4 nM.
Compound `Cc1ccc(-c2cccc(S(=O)(=O)NC3CCCCc4c(OCC(=O)O)cccc43)c2)cc1` (stereo not shown) [Example 39, [5-(4′-Methyl-biphenyl-3-sulfonylamino)-6,7,8,9-tetrahydro-5H-benzocyclohepten-1-yloxy]-acetic acid] registered a 50% inhibitory concentration (IC50) of 514 nM.
The figure for `COc1cc(C(F)(F)F)cc(S(=O)(=O)N(C)C2CCCCc3c(OCC(=O)O)cccc32)c1` (stereo not shown) [Example 14, {5-[(3-Methoxy-5-trifluoromethyl-benzenesulfonyl)-methyl-amino]-6,7,8,9-tetrahydro-5H-benzocyclohepten-1-yloxy}-acetic acid] is 106 nM; for `Cc1cc(-c2ccc(S(=O)(=O)NC3CCCCc4c(OCC(=O)O)cccc43)cc2)cc(C(C)(C)C)c1` (stereo not shown) [Example 21, [5-(3′-tert-Butyl-5′-methyl-biphenyl-4-sulfonylamino)-6,7,8,9-tetrahydro-5H-benzocyclohepten-1-yloxy]-acetic acid] it is 34.7 nM; for `Cc1cc(-c2ccc(S(=O)(=O)N(C)C3CCCCc4c(OCC(=O)O)cccc43)cc2)cc(C(C)(C)C)c1` (stereo not shown) [Example 22, {5-[(3′-tert-Butyl-5′-methyl-biphenyl-4-sulfonyl)-methyl-amino]-6,7,8,9-tetrahydro-5H-benzocyclohepten-1-yloxy}-acetic acid] it is 189 nM.
In turn, `CN(C1CCCCc2c(OCC(=O)O)cccc21)S(=O)(=O)c1cc(S(C)(=O)=O)cc(S(C)(=O)=O)c1` (stereo not shown) [Example 11, {5-[(3,5-Bis-methanesulfonyl-benzenesulfonyl)-methyl-amino]-6,7,8,9-tetrahydro-5H-benzocyclohepten-1-yloxy}-acetic acid] yielded an IC50 of 33.4 nM.
In the case of `CSc1cccc(-c2ccc(S(=O)(=O)NC3CCCCc4c(OCC(=O)O)cccc43)cc2)c1` (stereo not shown) [Example 27, [5-(3′-Methylsulfanyl-biphenyl-4-sulfonylamino)-6,7,8,9-tetrahydro-5H-benzocyclohepten-1-yloxy]-acetic acid], the IC50 is 24.3 nM.
With `O=C(O)COc1cccc2c1CCCCC2NS(=O)(=O)c1cccc(-c2ccccc2)c1` (stereo not shown) [Example 3, [5-(Biphenyl-3-sulfonylamino)-6,7,8,9-tetrahydro-5H-benzocyclohepten-1-yloxy]-acetic acid] the figure was 2610 nM.
